Test results reported in ChEMBL document CHEMBL4613317, “Substituted Naphthalenediimide Compounds Bind Selectively to Two Human Quadruplex Structures with Parallel Topology” (ACS Med Chem Lett, 2020).
Activity calls are given as the source filed them. The rule behind the calls is not given here.

Key:
Quadruplex DNA [1] = test: Induction of (3+1) hybrid structural changes of human HTR G4-quadruplex DNA to antiparallel structure at 20 uM by circular dichroism analysis; type: nucleic-acid assay
Quadruplex DNA [2] = test: Induction of parallel human TERT G4-quadruplex DNA structural changes up to 20 uM by circular dichroism analysis; type: nucleic-acid assay
Quadruplex DNA [3] = test: Binding affinity to human TERT G4-quadruplex DNA assessed as change in melting temperature by UV-visible spectrophotometry; type: nucleic-acid assay
Quadruplex DNA [4] = test: Binding affinity to human HTR G4-quadruplex DNA assessed as change in melting temperature by UV-visible spectrophotometry; type: nucleic-acid assay
DNA [5] = test: Binding affinity to human TERT hairpin duplex DNA assessed as change in melting temperature by UV-visible spectrophotometry; type: nucleic-acid assay
Quadruplex DNA [6] = test: Binding affinity to biotin-labeled human TERT G4-quadruplex DNA assessed as dissociation equilibrium binding constant by SPR analysis; type: nucleic-acid assay
Quadruplex DNA [7] = test: Binding affinity to biotin-labeled human HTR G4-quadruplex DNA assessed as dissociation equilibrium binding constant by SPR analysis; type: nucleic-acid assay
Quadruplex DNA [8] = test: Binding affinity to biotin-labeled human TERRA G4-quadruplex RNA assessed as dissociation equilibrium binding constant by SPR analysis; type: nucleic-acid assay
Quadruplex DNA [9] = test: Binding affinity to human TERT G4-quadruplex DNA assessed as dissociation equilibrium binding constant by intrinsic fluorescence titration based fluorescence spectrophotometry; type: nucleic-acid assay
Quadruplex DNA [10] = test: Binding affinity to human HTR G4-quadruplex DNA assessed as dissociation equilibrium binding constant by intrinsic fluorescence titration based fluorescence spectrophotometry; type: nucleic-acid assay
Quadruplex DNA [11] = test: Binding affinity to human TERRA G4-quadruplex RNA assessed as dissociation equilibrium binding constant by fluorescence anisotropy titration based fluorescence spectrophotometry; type: nucleic-acid assay
Quadruplex DNA [12] = test: Binding affinity to G-quartet terminal of human TERT G4-quadruplex DNA with parallel topology up to 20 uM by circular dichroism analysis; type: nucleic-acid assay
Quadruplex DNA [13] = test: Binding affinity to end quartet of (3+1) hybrid structure of human HTR G4-quadruplex DNA up to 20 uM by circular dichroism analysis; type: nucleic-acid assay
Quadruplex DNA [14] = test: Binding affinity to G-quartet terminal of human TERRA G4-quadruplex RNA with parallel topology up to 20 uM by circular dichroism analysis; type: nucleic-acid assay
DNA [15] = test: Binding affinity to biotin-labeled duplex DNA AAAGAACTTT (unknown origin) assessed as dissociation equilibrium binding constant by SPR analysis; type: nucleic-acid assay
Quadruplex DNA [16] = test: Induction of parallel human TERRA G4-quadruplex RNA structural changes up to 20 uM by circular dichroism analysis; type: nucleic-acid assay
Homo sapiens [17] = species: Homo sapiens; test: Selectivity index, ratio of Kd for human HTR G4-quadruplex DNA to Kd for human TERT G4-quadruplex DNA by intrinsic fluorescence titration based fluorescence spectrophotometry
Homo sapiens [18] = species: Homo sapiens; test: Selectivity index, ratio of Kd for biotin-labeled human HTR G4-quadruplex DNA to Kd for biotin-labeled human TERRA G4-quadruplex RNA by SPR analysis
Homo sapiens [19] = species: Homo sapiens; test: Selectivity index, ratio of Kd for human HTR G4-quadruplex DNA to Kd for human TERRA G4-quadruplex RNA by fluorescence spectrophotometry
Homo sapiens [20] = species: Homo sapiens; test: Selectivity index, ratio of Kd for biotin-labeled human HTR G4-quadruplex DNA to Kd for biotin-labeled human TERT G4-quadruplex DNA by SPR analysis

Question: With `O=C1c2cc(-c3ccc(CN4CCCC4)cc3)c3c4c(cc(NCCN5CCCC5)c(c24)C(=O)N1CCCN1CCOCC1)C(=O)N(CCCN1CCOCC1)C3=O` [QN-302] as the compound, how does the Activity (Quadruplex DNA [1]) read?
Answer: Active

Question: And the Activity (Quadruplex DNA [2])?
Answer: inactive

Question: And the ΔTm (Quadruplex DNA [3])?
Answer: 18 °C

Question: What about the ΔTm (Quadruplex DNA [4]) of the same compound?
Answer: 10 °C

Question: What about the ΔTm (DNA [5]) of the same compound?
Answer: 2 °C

Question: And the Kd (Quadruplex DNA [6])?
Answer: 4 nM

Question: What about the Kd (Quadruplex DNA [7]) of the same compound?
Answer: 28 nM

Question: What about the Kd (Quadruplex DNA [8]) of the same compound?
Answer: 3 nM

Question: What about the Kd (Quadruplex DNA [9]) of the same compound?
Answer: 4 nM

Question: And the Kd (Quadruplex DNA [10])?
Answer: 29 nM

Question: What about the Kd (Quadruplex DNA [11]) of the same compound?
Answer: 2 nM

Question: And the Activity (Quadruplex DNA [12])?
Answer: Active

Question: And the Activity (Quadruplex DNA [13])?
Answer: Active

Question: And the Activity (Quadruplex DNA [14])?
Answer: Active

Question: And the Kd (DNA [15])?
Answer: > 100 nM

Question: What about the Activity (Quadruplex DNA [16]) of the same compound?
Answer: inactive

Question: And the Selectivity Index (Homo sapiens [17])?
Answer: 5

Question: What about the Selectivity Index (Homo sapiens [18]) of the same compound?
Answer: 5

Question: And the Selectivity Index (Homo sapiens [19])?
Answer: 5

Question: Which Activity (Quadruplex DNA [1]) does the source give for `O=C1c2ccc3c4c(c(NCCN5CCCC5)cc(c24)C(=O)N1CCCN1CCOCC1)C(=O)N(CCCN1CCOCC1)C3=O` here?
Answer: Active

Question: What about the Activity (Quadruplex DNA [2]) of the same compound?
Answer: inactive

Question: And the ΔTm (Quadruplex DNA [3])?
Answer: 13 °C

Question: What about the ΔTm (Quadruplex DNA [4]) of the same compound?
Answer: 5 °C

Question: And the ΔTm (DNA [5])?
Answer: 2 °C

Question: What about the Kd (Quadruplex DNA [6]) of the same compound?
Answer: 12 nM

Question: What about the Kd (Quadruplex DNA [7]) of the same compound?
Answer: 82 nM

Question: And the Kd (Quadruplex DNA [8])?
Answer: 4 nM

Question: And the Kd (Quadruplex DNA [9])?
Answer: 16 nM

Question: What about the Kd (Quadruplex DNA [10]) of the same compound?
Answer: 94 nM

Question: What about the Kd (Quadruplex DNA [11]) of the same compound?
Answer: 3 nM

Question: What about the Activity (Quadruplex DNA [12]) of the same compound?
Answer: Active

Question: What about the Activity (Quadruplex DNA [13]) of the same compound?
Answer: Active

Question: What about the Activity (Quadruplex DNA [14]) of the same compound?
Answer: Active

Question: And the Selectivity Index (Homo sapiens [20])?
Answer: 7

Question: What about the Kd (DNA [15]) of the same compound?
Answer: > 100 nM

Question: What about the Activity (Quadruplex DNA [16]) of the same compound?
Answer: inactive

Question: What about the Selectivity Index (Homo sapiens [18]) of the same compound?
Answer: 5

Question: What about the Selectivity Index (Homo sapiens [19]) of the same compound?
Answer: 5

Question: How did the Activity (Quadruplex DNA [1]) turn out when `CN1CCN(CCCNc2cc3c4c(c(NCCCN5CCN(C)CC5)cc5c4c2C(=O)N(CCCN2CCOCC2)C5=O)C(=O)N(CCCN2CCOCC2)C3=O)CC1` was run?
Answer: Active

Question: And the Activity (Quadruplex DNA [2])?
Answer: inactive

Question: What about the ΔTm (Quadruplex DNA [4]) of the same compound?
Answer: 11 °C

Question: And the ΔTm (DNA [5])?
Answer: < 2 °C

Question: And the Kd (Quadruplex DNA [6])?
Answer: 2 nM

Question: And the Kd (Quadruplex DNA [7])?
Answer: 5 nM

Question: And the Kd (Quadruplex DNA [8])?
Answer: 3 nM

Question: And the Kd (Quadruplex DNA [9])?
Answer: 4 nM

Question: And the Kd (Quadruplex DNA [10])?
Answer: 10 nM

Question: And the Kd (Quadruplex DNA [11])?
Answer: 2 nM

Question: What about the Activity (Quadruplex DNA [12]) of the same compound?
Answer: Active

Question: And the Activity (Quadruplex DNA [13])?
Answer: Active

Question: And the Activity (Quadruplex DNA [14])?
Answer: Active

Question: What about the Activity (Quadruplex DNA [16]) of the same compound?
Answer: inactive
